The values below are quoted from earlier work in patent US20160133992A1, “DRYING OF ELECTROLYTE MIXTURES CONTAINING ACIDS WITH MOLECULAR SIEVES” (BASF SE, priority 2013, published 2016).

Settings in the first data set: not given
What is called pKa is the pH at which an ionisable group is half protonated. For `CCCCC(CCO)S(=O)(=O)O` (stereo not shown) [1-Butyl-gamma-hydroxy propane sulfonic acid], the pKa result was “below 4”.
As for `CC(CCCO)S(=O)(=O)O` (stereo not shown) [1-Methyl-4-hydroxy-1-butane sulfonic acid], the pKa result is “below 4”.
On to `O=S(=O)(O)CCCCCO` [5-hydroxy-1-pentane sulfonic acid], for which the pKa result was “below 4”.
As for `CCCCCCCCC(CCCO)S(=O)(=O)O` (stereo not shown) [1-Octyl-4-hydroxy-1-butane sulfonic acid], the pKa result is recorded as “below 4”.
Turning to `CC(CCO)S(=O)(=O)O` (stereo not shown) [1-Methyl-gamma-hydroxy propane sulfonic acid], the pKa entry is on record as “below 4”.
For the compound `CCCC(CCO)S(=O)(=O)O` (stereo not shown) [1-Propyl-gamma-hydroxy propane sulfonic acid], the pKa entry is given as “below 4”.
Take `O=S(=O)(O)CCCCO` [4-hydroxy-1-butane sulfonic acid]: the pKa is listed as −1,7.
Regarding `CCC(CCO)S(=O)(=O)O` (stereo not shown) [1-Ethyl-gamma-hydroxy propane sulfonic acid], the pKa entry is given as “below 4”.
Turning to `CCC(CCCO)S(=O)(=O)O` (stereo not shown) [1-Ethyl-4-hydroxy-1-butane sulfonic acid], the pKa entry is listed as “below 4”.

Still in this data set, the particulars now being: listed as compound of formula (b).
For the compound `O=S(=O)(O)CCCO` [gamma-hydroxy propane sulfonic acid], the pKa is on record as −1.49.
